According to ChEMBL document CHEMBL1201862, “PubChem BioAssay data set” (2004):
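Interpolation was linear, between the two tested concentrations surrounding the appropriate level; five concentrations were tested over 48 hours in 96-well plates. The concentration for 50% growth inhibition is given as GI50.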 Activity calls are given as the source filed them. Rule as the data show it: active = GI50 up to about 1.1 µM and inactive = higher.

Key:
Assay in all cases: NCI tumour cell line growth inhibition, 48 h
U-251 = test system: U-251
KM12 = test system: KM12
XF498 = test system: XF498
SNB-78 = test system: SNB-78
SF-295 = test system: SF-295
TK-10 = test system: TK-10
786-0 = test system: 786-0
HT-29 = test system: HT-29
NCI-H226 = test system: NCI-H226
OVCAR-5 = test system: OVCAR-5
A498 = test system: A498
SK-MEL-2 = test system: SK-MEL-2
SK-MEL-5 = test system: SK-MEL-5
HL-60 = test system: HL-60
HCC 2998 = test system: HCC 2998
LOX IMVI = test system: LOX IMVI
NCI-H522 = test system: NCI-H522
UACC-257 = test system: UACC-257
RXF 631 = test system: RXF 631
DLD-1 = test system: DLD-1
CCRF-CEM = test system: CCRF-CEM
RPMI-8226 = test system: RPMI-8226
SF-539 = test system: SF-539
HCT-15 = test system: HCT-15
SN12C = test system: SN12C
SNB-19 = test system: SNB-19
SK-OV-3 = test system: SK-OV-3
NCI-H23 = test system: NCI-H23
LXFL 529 = test system: LXFL 529
HOP-62 = test system: HOP-62
KM-20L2 = test system: KM-20L2
OVCAR-8 = test system: OVCAR-8
A549 = test system: A549
CAKI-1 = test system: CAKI-1
RXF 393 = test system: RXF 393
DMS-273 = test system: DMS-273
HOP-92 = test system: HOP-92
SW-620 = test system: SW-620
M14 = test system: M14
UACC-62 = test system: UACC-62
K562 = test system: K562
SR = test system: SR
EKVX = test system: EKVX
SNB-75 = test system: SNB-75
NCI-H460 = test system: NCI-H460
IGROV-1 = test system: IGROV-1
HCT-116 = test system: HCT-116
M19-MEL = test system: M19-MEL
ACHN = test system: ACHN
UO-31 = test system: UO-31
MOLT-4 = test system: MOLT-4
OVCAR-4 = test system: OVCAR-4
COLO 205 = test system: COLO 205
SF-268 = test system: SF-268
Malme-3M = test system: Malme-3M
OVCAR-3 = test system: OVCAR-3
DMS-114 = test system: DMS-114

COC(=O)/C(=C/c1ccc(OC)cc1)C(C(=O)O)=C1CCCC1
GI50 (U-251): > 100 µM (inactive)
GI50 (KM12): > 100 µM (inactive)
GI50 (XF498): 11.7 µM (inactive)
GI50 (SNB-78): > 100 µM (inactive)
GI50 (SF-295): > 100 µM (inactive)
GI50 (TK-10): > 100 µM (inactive)
GI50 (786-0): > 100 µM (inactive)
GI50 (HT-29): > 100 µM (inactive)
GI50 (NCI-H226): > 100 µM (inactive)
GI50 (OVCAR-5): > 100 µM (inactive)
GI50 (A498): > 100 µM (inactive)
GI50 (SK-MEL-2): > 100 µM (inactive)
GI50 (SK-MEL-5): > 100 µM (inactive)
GI50 (HL-60): > 100 µM (inactive)
GI50 (HCC 2998): > 100 µM (inactive)
GI50 (LOX IMVI): > 100 µM (inactive)
GI50 (NCI-H522): > 100 µM (inactive)
GI50 (UACC-257): > 100 µM (inactive)
GI50 (RXF 631): > 100 µM (inactive)
GI50 (DLD-1): > 100 µM (inactive)
GI50 (CCRF-CEM): > 100 µM (inactive)
GI50 (RPMI-8226): > 100 µM (inactive)
GI50 (SF-539): > 100 µM (inactive)
GI50 (HCT-15): > 100 µM
GI50 (SN12C): > 100 µM (inactive)
GI50 (SNB-19): > 100 µM (inactive)
GI50 (SK-OV-3): > 100 µM (inactive)
GI50 (NCI-H23): > 100 µM (inactive)
GI50 (LXFL 529): > 100 µM (inactive)
GI50 (HOP-62): > 100 µM (inactive)
GI50 (KM-20L2): > 100 µM (inactive)
GI50 (OVCAR-8): > 100 µM (inactive)
GI50 (A549): > 100 µM (inactive)
GI50 (CAKI-1): > 100 µM (inactive)
GI50 (RXF 393): > 100 µM (inactive)
GI50 (DMS-273): > 100 µM (inactive)
GI50 (HOP-92): > 100 µM (inactive)
GI50 (SW-620): > 100 µM (inactive)
GI50 (M14): > 100 µM (inactive)
GI50 (UACC-62): > 100 µM (inactive)
GI50 (K562): > 100 µM (inactive)
GI50 (SR): > 100 µM (inactive)
GI50 (EKVX): > 100 µM (inactive)
GI50 (SNB-75): > 100 µM (inactive)
GI50 (NCI-H460): > 100 µM (inactive)
GI50 (IGROV-1): > 100 µM (inactive)
GI50 (HCT-116): > 100 µM (inactive)
GI50 (M19-MEL): > 100 µM (inactive)
GI50 (ACHN): > 100 µM (inactive)
GI50 (UO-31): > 100 µM (inactive)
GI50 (MOLT-4): > 100 µM (inactive)
GI50 (OVCAR-4): > 100 µM (inactive)
GI50 (COLO 205): > 100 µM (inactive)

N#CC(C#N)=C1NC(=O)C(c2ccccc2)C(=O)N1 (stereo not drawn)
GI50 (U-251): > 100 µM (inactive)
GI50 (KM12): > 100 µM (inactive)
GI50 (SF-268): > 100 µM (inactive)
GI50 (XF498): > 100 µM (inactive)
GI50 (SNB-78): > 100 µM (inactive)
GI50 (SF-295): > 100 µM (inactive)
GI50 (TK-10): > 100 µM (inactive)
GI50 (786-0): > 100 µM (inactive)
GI50 (HT-29): > 100 µM (inactive)
GI50 (NCI-H226): > 100 µM (inactive)
GI50 (OVCAR-5): > 100 µM (inactive)
GI50 (A498): > 100 µM (inactive)
GI50 (SK-MEL-5): > 100 µM (inactive)
GI50 (HL-60): > 100 µM (inactive)
GI50 (HCC 2998): > 100 µM (inactive)
GI50 (LOX IMVI): > 100 µM (inactive)
GI50 (NCI-H522): > 100 µM (inactive)
GI50 (UACC-257): > 100 µM (inactive)
GI50 (RXF 631): > 100 µM (inactive)
GI50 (Malme-3M): > 100 µM (inactive)
GI50 (DLD-1): > 100 µM (inactive)
GI50 (OVCAR-3): > 100 µM (inactive)
GI50 (CCRF-CEM): > 100 µM (inactive)
GI50 (RPMI-8226): > 100 µM (inactive)
GI50 (SF-539): > 100 µM (inactive)
GI50 (HCT-15): > 100 µM
GI50 (SN12C): > 100 µM (inactive)
GI50 (SNB-19): > 100 µM (inactive)
GI50 (SK-OV-3): > 100 µM (inactive)
GI50 (NCI-H23): > 100 µM (inactive)
GI50 (LXFL 529): > 100 µM (inactive)
GI50 (HOP-62): > 100 µM (inactive)
GI50 (KM-20L2): > 100 µM (inactive)
GI50 (OVCAR-8): > 100 µM (inactive)
GI50 (A549): > 100 µM (inactive)
GI50 (DMS-114): > 100 µM (inactive)
GI50 (CAKI-1): > 100 µM (inactive)
GI50 (RXF 393): > 100 µM (inactive)
GI50 (DMS-273): > 100 µM (inactive)
GI50 (HOP-92): > 100 µM (inactive)
GI50 (SW-620): > 100 µM (inactive)
GI50 (M14): > 100 µM (inactive)
GI50 (UACC-62): > 100 µM (inactive)
GI50 (K562): > 100 µM (inactive)
GI50 (SR): > 100 µM (inactive)
GI50 (EKVX): > 100 µM (inactive)
GI50 (SNB-75): > 100 µM (inactive)
GI50 (NCI-H460): > 100 µM (inactive)
GI50 (IGROV-1): > 100 µM (inactive)
GI50 (HCT-116): > 100 µM (inactive)
GI50 (M19-MEL): > 100 µM (inactive)
GI50 (UO-31): > 100 µM (inactive)
GI50 (MOLT-4): > 100 µM (inactive)
GI50 (OVCAR-4): > 100 µM (inactive)
GI50 (COLO 205): > 100 µM (inactive)
